Assays:
Format in all cases: in vivo
[1] = tested on: Yellow Fever Mosquito (Aedes aegypti, AEDSAE); assay: Insecticidal test for yellow fever mosquito (YFM), 96-well plate larval assay; details: from 4000 ppm DMSO master solution, diluted; about 1 day-old larvae; room temperature; scored after 3 days
Description: Insecticidal Test for Yellow Fever Mosquito (Aedes aegypti, AEDSAE) (“YFM”)
Master plates containing 400 μg of a molecule dissolved in 100 μL of dimethyl sulfoxide (DMSO) (equivalent to a 4000 ppm solution) are used. A master plate of assembled molecules contains 15 μL per well. To this plate, 135 μL of a 90:10 water/acetone mixture is added to each well. A robot (Biomek® NXP Laboratory Automation Workstation) is programmed to dispense 15 μL aspirations from the master plate into an empty 96-well shallow plate (“daughter” plate). There are 6 reps (“daughter” plates) created per master. The created “daughter” plates are then immediately infested with YFM larvae.
The day before plates are to be treated, mosquito eggs are placed in Millipore water containing liver powder to begin hatching (4 g. into 400 mL). After the “daughter” plates are created using the robot, they are infested with 220 μL of the liver powder/larval mosquito mixture (about 1 day-old larvae). After plates are infested with mosquito larvae, a non-evaporative lid is used to cover the plate to reduce drying. Plates are held at room temperature for 3 days prior to grading. After 3 days, each well is observed and scored based on mortality.

[2] = tested on: Beet Armyworm (Spodoptera exigua, LAPHEG); assay: Insecticidal test for beet armyworm (BAW), 128-well diet tray assay; details: 168 h, 50 μg/cm^2 of test compound on artificial diet, second instar larvae, 25° C., five to seven days, average of eight wells, read-out: BAW % Control (or Mortality) rating
Description: Insecticidal Test for Beet Armyworm (Spodoptera exigua, LAPHEG) (“BAW”)
(§1) Bioassays on beet armyworm (BAW; Spodoptera exigua: Lepidoptera) are conducted using a 128-well diet tray assay. One to five second instar BAW larvae are placed in each well (3 mL) of the diet tray that had been previously filled with 1 mL of artificial diet to which 50 μg/cm^2 of the test compound (dissolved in 50 μL of 90:10 acetone-water mixture) had been applied (to each of eight wells) and then allowed to dry. Trays are covered with a clear self-adhesive cover, vented to allow gas exchange, and held at 25° C., 14:10 light-dark for five to seven days. Percent mortality is recorded for the larvae in each well; activity in the eight wells is then averaged.

[3] = tested on: Cabbage Looper (Trichloplusia Ni, TRIPNI); assay: Insecticidal test for cabbage looper (CL), 128-well diet tray assay; details: Trichoplusia ni, 168 h, read-out: CL % Control (or Mortality) rating
Description: Insecticidal Test for Cabbage Looper (Trichloplusia Ni, TRIPNI) (“CL”)
as §1, with “cabbage looper (CL; Trichloplusia ni:” for “beet armyworm (BAW; Spodoptera exigua:”, “CL” for “BAW”

| SMILES | YFM % Control (or Mortality) rating [1] | mortality at 50 µg/cm2 [2] [%] | mortality at 50 µg/cm2 [3] [%] |
| --- | --- | --- | --- |
| Cc1ccc(C(C)C)c(N2C(=O)CS/C2=N\C(=O)NCCc2ccc(NC(=S)Nc3ccc(OC(F)(F)F)cc3)cc2)c1 [Compound A46, (Z)-1-(3-(2-isopropyl-5-methylphenyl)-4-oxothiazolidin-2-ylidene)-3-(4-(3-(4-(trifluoromethoxy)phenyl)thioureido)phenethyl)urea] | A (80-100) | 50 to 100 | 50 to 100 |
| Cc1ccc(C(C)C)c(N2C(=O)CS/C2=N\C(=O)Nc2ccc(NC(=O)c3ccc(OC(F)(F)F)cc3)cc2)c1 [Compound A48, (Z)—N-(4-(3-(3-(2-isopropyl-5-methylphenyl)-4-oxothiazolidin-2-ylidene)ureido)phenyl)-4-(trifluoromethoxy)benzamide] | A (80-100) | 50 to 100 | 50 to 100 |
| Cc1ccc(C(C)C)c(N2C(=O)CS/C2=N\C(=O)NC(C)Cc2ccc(NC(=O)Nc3ccc(OC(F)(F)F)cc3)cc2)c1 (centres unmarked) [Compound A26, (Z)-1-(3-(2-Isopropyl-5-methylphenyl)-4-oxothiazolidin-2-ylidene)-3-(1-(4-(3-(4-(trifluoromethoxy)phenyl)ureido)phenyl)propan-2-yl)urea] | A (80-100) | 50 to 100 | 50 to 100 |
| CCCc1ccc(OC)cc1N1C(=O)CS/C1=N\C(=O)NCCc1ccc(NC(=O)Nc2ccc(OC(F)(F)F)cc2)cc1 [Compound A18, (Z)-1-(4-(2-(3-(3-(5-Methoxy-2-propylphenyl)-4-oxothiazolidin-2-ylidene)ureido)ethyl)phenyl)-3-(4-(trifluoromethoxy)phenyl)urea] | B (More than 0-Less than 80) | 50 to 100 | 50 to 100 |
| Cc1cc(Cl)c(N2C(=O)CS/C2=N\C(=O)NC(C)Cc2ccc(NC(=O)Nc3ccc(OC(F)(F)F)cc3)cc2)cc1C (centres unmarked) [Compound A41, (Z)-1-(4-(2-(3-(3-(2-Chloro-4,5-dimethylphenyl)-4-oxothiazolidin-2-ylidene)ureido)propyl)phenyl)-3-(4-(trifluoromethoxy)phenyl)urea] | B (More than 0-Less than 80) | 50 to 100 | 50 to 100 |
| CC(C)c1ccc(Cl)cc1N1C(=O)CS/C1=N\C(=O)NCCc1ccc(NC(=O)Nc2ccc(OC(F)(F)F)cc2)cc1 [Compound A15, (Z)-1-(4-(2-(3-(3-(5-Chloro-2-isopropylphenyl)-4-oxothiazolidin-2-ylidene)ureido)ethyl)phenyl)-3-(4-(trifluoromethoxy)phenyl)urea] | A (80-100) | 50 to 100 | 50 to 100 |
| CC(Cc1ccc(NC(=O)Nc2ccc(OC(F)(F)F)cc2)cc1)NC(=O)/N=C1\SCC(=O)N1c1cc(Cl)ccc1C(C)C (centres unmarked) [Compound A35, (Z)-1-(4-(2-(3-(3-(5-Chloro-2-isopropylphenyl)-4-oxothiazolidin-2-ylidene)ureido)propyl)phenyl)-3-(4-(trifluoromethoxy)phenyl)urea] | A (80-100) | 50 to 100 | 50 to 100 |
| CC(C)c1ccccc1N1C(=O)CS/C1=N\C(=O)NCCc1ccc(NC(=O)Nc2ccc(OC(F)(F)F)cc2)cc1 [Compound A16, (Z)-1-(4-(2-(3-(3-(2-Isopropylphenyl)-4-oxothiazolidin-2-ylidene)ureido)ethyl)phenyl)-3-(4-(trifluoromethoxy)phenyl)urea] | A (80-100) | 50 to 100 | 50 to 100 |
| CCc1cccc(C)c1N1C(=O)CS/C1=N\C(=O)NC(C)Cc1ccc(NC(=O)Nc2ccc(OC(F)(F)F)cc2)cc1 (centres unmarked) [Compound A40, (Z)-1-(4-(2-(3-(3-(2-Ethyl-6-methylphenyl)-4-oxothiazolidin-2-ylidene)ureido)propyl)phenyl)-3-(4-(trifluoromethoxy)phenyl)urea] | A (80-100) | 50 to 100 | 50 to 100 |
| CCc1cccc(C)c1N1C(=O)CS/C1=N\C(=O)NCCc1ccc(NC(=O)Nc2ccc(C(F)(F)F)cc2)cc1 [Compound A11, (Z)-1-(4-(2-(3-(3-(2-Ethyl-6-methylphenyl)-4-oxothiazolidin-2-ylidene)ureido)ethyl)phenyl)-3-(4-(trifluoromethyl)phenyl)urea] | A (80-100) | 50 to 100 | 50 to 100 |
| Cc1ccc(OCC(F)(F)F)c(N2C(=O)CS/C2=N\C(=O)Nc2ccc(NNC(=O)c3ccc(OC(F)(F)F)cc3)cc2)c1 [Compound A5, (Z)-1-(3-(5-Methyl-2-(2,2,2-trifluoroethoxy)phenyl)-4-oxothiazolidin-2-ylidene)-3-(4-(2-(4-(trifluoromethoxy)benzoyl)hydrazinyl)phenyl)urea] | B (More than 0-Less than 80) | 0 to 50 | 0 to 50 |
| Cc1ccc(OCC(F)(F)F)c(N2C(=O)CS/C2=N\C(=O)Nc2ccc(C(=O)NNc3ccc(OC(F)(F)F)cc3)cc2)c1 [Compound A3, (Z)-1-(3-(5-methyl-2-(2,2,2-trifluoroethoxy)phenyl)-4-oxothiazolidin-2-ylidene)-3-(4-(2-(4-(trifluoromethoxy)phenyl)hydrazine-1-carbonyl)phenyl)urea] | D (No activity noticed in this bioassay) | 50 to 100 | 50 to 100 |
| O=C(/N=C1\SCC(=O)N1c1cc(Cl)ccc1OCC(F)(F)F)Nc1ccc(NNC(=O)c2ccc(OC(F)(F)F)cc2)cc1 [Compound A6, (Z)-1-(3-(5-Chloro-2-(2,2,2-trifluoroethoxy)phenyl)-4-oxothiazolidin-2-ylidene)-3-(4-(2-(4-(trifluoromethoxy)benzoyl)hydrazinyl)phenyl)urea] | D (No activity noticed in this bioassay) | 0 | 0 |
| Cc1ccc(C(C)C)c(N2C(=O)CS/C2=N\C(=O)Nc2ccc(NC(=O)Nc3ccc(OC(F)(F)F)cc3)cc2)c1 [Compound A7, (Z)-1-(3-(2-isopropyl-5-methylphenyl)-4-oxothiazolidin-2-ylidene)-3-(4-(3-(4-(trifluoromethoxy)phenyl)ureido)phenyl)urea] | A (80-100) | 50 to 100 | 50 to 100 |
| COc1ccc(N2C(=O)CS/C2=N\C(=O)NC(C)Cc2ccc(NC(=O)Nc3ccc(C(F)(F)F)cc3)cc2)c(C)c1 (centres unmarked) [Compound A31, (Z)-1-(4-(2-(3-(3-(4-Methoxy-2-methylphenyl)-4-oxothiazolidin-2-ylidene)ureido)propyl)phenyl)-3-(4-(trifluoromethyl)phenyl)urea] | A (80-100) | 0 to 50 | 50 to 100 |
| CC(Cc1ccc(NC(=O)Nc2ccc(OC(F)(F)F)cc2)cc1)NC(=O)/N=C1\SCC(=O)N1c1cccc2c1CCCC2 (centres unmarked) [Compound A42, (Z)-1-(4-(2-(3-(4-Oxo-3-(5,6,7,8-tetrahydronaphthalen-1-yl)thiazolidin-2-ylidene)ureido)propyl)phenyl)-3-(4-(trifluoromethoxy)phenyl)urea] | A (80-100) | 50 to 100 | 50 to 100 |
| Cc1ccc(C(C)C)c(-n2ccs/c2=N\C(=O)NCCc2ccc(NC(=O)Nc3ccc(C(F)(F)F)cc3)cc2)c1 [Compound A14, (Z)-1-(4-(2-(3-(3-(2-Isopropyl-5-methylphenyl)thiazol-2(3H)-ylidene)ureido)ethyl)phenyl)-3-(4-(trifluoromethyl)phenyl)urea] | A (80-100) | 50 to 100 | 50 to 100 |
| CCc1cccc(C)c1N1C(=O)CS/C1=N\C(=O)NC(C)Cc1ccc(NC(=O)Nc2ccc(C(F)(F)F)cc2)cc1 (centres unmarked) [Compound A32, (Z)-1-(4-(2-(3-(3-(2-Ethyl-6-methylphenyl)-4-oxothiazolidin-2-ylidene)ureido)propyl)phenyl)-3-(4-(trifluoromethyl)phenyl)urea] |  | 50 to 100 | 50 to 100 |

Source: patent US11332452B2, “Pesticidal compositions and methods” (priority 2019, dated 2022)
